Results reported in patent US20240391862A1, “(1,4,5-TRISUBSTITUTED-1H-PYRAZOL-3-YL)OXY-2-ALKOXY ALKYL ACIDS AND THEIR DERIVATIVES, THEIR SALTS AND THEIR USE AS HERBICIDAL AGENTS” (Bayer AKtiengesellschaft, priority 2021, published 2024).

Key:
ZEAMX = experiment: Post-emergence herbicidal effect and crop plant compatibility, greenhouse pot test; format: in vivo, Zea mays; conditions: one-leaf stage, rated visually after about 3 weeks vs untreated controls
How it was run: (§1)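 Sandy loam pots, greenhouse. One-leaf stage (2–3 wk after sowing) foliar spray; WP/EC in water + 0.5% additive, 600 l/ha; 20–320 g/ha. Visual score ~3 wk, 0–100% vs untreated.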

ABUTH = experiment: Post-emergence herbicidal effect, greenhouse pot test; format: in vivo, Abutilon theophrasti; conditions: visual rating about 3 weeks after treatment
How it was run: as §1

ALOMY = experiment: as above; format: in vivo, Alopecurus myosuroides; conditions: 320 g/ha, visual rating about 3 weeks after treatment
How it was run: as §1

AMARE = experiment: as above; format: in vivo, Amaranthus retroflexus; conditions: visual rating about 3 weeks after treatment
How it was run: as §1

AVEFA = experiment: as above; format: in vivo, Avena fatua; conditions: visual rating about 3 weeks after treatment
How it was run: as §1

DIGSA = experiment: as above; format: in vivo, Digitaria sanguinalis; conditions: visual rating about 3 weeks after treatment
How it was run: as §1

ECHCG = experiment: as above; format: in vivo, Echinochloa crus-galli
How it was run: as §1

LOLRI = experiment: as above; format: in vivo, Lolium rigidum; conditions: 320 g/ha
How it was run: as §1

MATIN = experiment: as above; format: in vivo, Tripleurospermum inodorum
How it was run: as §1

PHBPU = experiment: as above; format: in vivo, Ipomoea purpurea
How it was run: as §1

POLCO = experiment: as above; format: in vivo, Fallopia convolvulus
How it was run: as §1

SETVI = experiment: as above; format: in vivo, Setaria viridis
How it was run: as §1

VERPE = experiment: as above; format: in vivo, Veronica persica
How it was run: as §1

VIOTR = experiment: as above; format: in vivo, Viola tricolor
How it was run: as §1

KCHSC = experiment: as above; format: in vivo
How it was run: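 Greenhouse plants in sandy loam, sprayed post-emergence at the one-leaf stage (2–3 weeks after sowing) with WP or EC formulations in water plus 0.5% additive at 600 l/ha. Rates 20 to 320 g/ha. Activity rated visually after about 3 weeks against untreated controls (0% like control, 100% dead).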

For `COC(=O)C(OC)Oc1nn(-c2ncccc2F)c(-c2ccc(F)nc2)c1C(F)(F)F` (centres unmarked) [Example I-41, Methyl {[1-(3-fluoropyridin-2-yl)-5-(6-fluoropyridin-3-yl)-4-(trifluoromethyl)-1H-pyrazol-3-yl]oxy}(methoxy)acetate], the plant injury at 20 g/ha (ZEAMX; Zea mays, 504 h, 20 g/ha, read-out: Post-emergence effect at 20 g/ha against ZEAMX in %) was 0%, the plant injury at 80 g/ha (ZEAMX; Zea mays, 504 h, 80 g/ha, read-out: Post-emergence effect at 80 g/ha against ZEAMX in %) was 0% and the pest or weed control at 80 g/ha (ABUTH; Abutilon theophrasti, 504 h, 80 g/ha, read-out: Post-emergence effect against ABUTH) was 90%. For the same compound, the pest or weed control at 320 g/ha (ABUTH; Abutilon theophrasti, 504 h, 320 g/ha, read-out: Post-emergence effect against ABUTH) was 90%, the pest or weed control at 320 g/ha (ALOMY; Alopecurus myosuroides, 504 h, read-out: Post-emergence effect against ALOMY) was 90% and the pest or weed control at 320 g/ha (AMARE; Amaranthus retroflexus, 504 h, 320 g/ha, read-out: Post-emergence effect against AMARE) was 90%. The pest or weed control at 80 g/ha (AVEFA; Avena fatua, 504 h, 80 g/ha, read-out: Post-emergence effect against AVEFA) was 80%, the pest or weed control at 320 g/ha (AVEFA; Avena fatua, 504 h, 320 g/ha, read-out: Post-emergence effect against AVEFA) was 90% and the pest or weed control at 80 g/ha (DIGSA; Digitaria sanguinalis, 504 h, 80 g/ha, read-out: Post-emergence effect against DIGSA) was 80%. It also gave a pest or weed control at 320 g/ha (DIGSA; Digitaria sanguinalis, 504 h, 320 g/ha, read-out: Post-emergence effect against DIGSA) of 90%, a pest or weed control at 320 g/ha (ECHCG; Echinochloa crus-galli, 504 h, 320 g/ha, read-out: Post-emergence effect against ECHCG in %) of 90% and a pest or weed control at 320 g/ha (LOLRI; Lolium rigidum, 504 h, read-out: Post-emergence effect against LOLRI in %) of 90%. The pest or weed control at 320 g/ha (MATIN; Tripleurospermum inodorum, 504 h, 320 g/ha, read-out: Post-emergence effect against MATIN in %) was 80%, the pest or weed control at 80 g/ha (PHBPU; Ipomoea purpurea, 504 h, 80 g/ha, read-out: Post-emergence effect against PHBPU in %) was 90% and the pest or weed control at 320 g/ha (PHBPU; Ipomoea purpurea, 504 h, 320 g/ha, read-out: Post-emergence effect against PHBPU in %) was 90%. For the same compound, the pest or weed control at 80 g/ha (POLCO; Fallopia convolvulus, 504 h, 80 g/ha, read-out: Post-emergence effect against POLCO in %) was 90%, the pest or weed control at 320 g/ha (POLCO; Fallopia convolvulus, 504 h, 320 g/ha, read-out: Post-emergence effect against POLCO in %) was 90% and the pest or weed control at 320 g/ha (SETVI; Setaria viridis, 504 h, 320 g/ha, read-out: Post-emergence effect against SETVI in %) was 90%. The pest or weed control at 320 g/ha (VERPE; Veronica persica, 504 h, 320 g/ha, read-out: Post-emergence effect against VERPE in %) was 90%, the pest or weed control at 80 g/ha (VIOTR; Viola tricolor, 504 h, 80 g/ha, read-out: Post-emergence effect against VIOTR in %) was 80% and the pest or weed control at 320 g/ha (VIOTR; Viola tricolor, 504 h, 320 g/ha, read-out: Post-emergence effect against VIOTR in %) was 90%. It also gave a pest or weed control at 80 g/ha (KCHSC; 504 h, 80 g/ha, read-out: Post-emergence effect against KCHSC in %) of 80% and a pest or weed control at 320 g/ha (KCHSC; 504 h, 320 g/ha, read-out: Post-emergence effect against KCHSC in %) of 90%.
`COC(=O)CCOC(=O)C(OC)Oc1nn(-c2ncccc2F)c(-c2cncc(F)c2)c1C1CC1` (centres unmarked) [Example I-82] was tested, and the “Post-emergence effect at 20 g/ha against ZEAMX in %” value (ZEAMX; 20 g/ha) was 20%, the “Post-emergence effect against ABUTH” value (ABUTH; 20 g/ha) was 80% and the “Post-emergence effect against ABUTH” value (ABUTH; 80 g/ha) was 90%. The “Post-emergence effect against ABUTH” value (ABUTH; 320 g/ha) was 90%, the “Post-emergence effect against ALOMY” value (ALOMY) was 90% and the “Post-emergence effect against AMARE” value (AMARE; 80 g/ha) was 90%. For the same compound, the “Post-emergence effect against AMARE” value (AMARE; 320 g/ha) was 90%, the “Post-emergence effect against AVEFA” value (AVEFA; 80 g/ha) was 90% and the “Post-emergence effect against AVEFA” value (AVEFA; 320 g/ha) was 90%. The “Post-emergence effect against DIGSA” value (DIGSA; 80 g/ha) was 90%, the “Post-emergence effect against DIGSA” value (DIGSA; 320 g/ha) was 90% and the “Post-emergence effect against ECHCG” value (ECHCG; 20 g/ha, visual rating about 3 weeks after treatment) was 80%. The “Post-emergence effect against ECHCG in %” value (ECHCG; 80 g/ha) was 90%, the “Post-emergence effect against ECHCG in %” value (ECHCG; 320 g/ha) was 90% and the “Post-emergence effect against LOLRI in %” value (LOLRI) was 90%. For the same compound, the “Post-emergence effect against MATIN in %” value (MATIN; 80 g/ha) was 80%, the “Post-emergence effect against MATIN in %” value (MATIN; 320 g/ha) was 90% and the “Post-emergence effect against PHBPU in %” value (PHBPU; 80 g/ha) was 80%. The “Post-emergence effect against PHBPU in %” value (PHBPU; 320 g/ha) was 90%, the “Post-emergence effect against POLCO in %” value (POLCO; 20 g/ha) was 80% and the “Post-emergence effect against POLCO in %” value (POLCO; 80 g/ha) was 80%. The “Post-emergence effect against POLCO in %” value (POLCO; 320 g/ha) was 90%, the “Post-emergence effect against SETVI in %” value (SETVI; 20 g/ha) was 90% and the “Post-emergence effect against SETVI in %” value (SETVI; 80 g/ha) was 90%. For the same compound, the “Post-emergence effect against SETVI in %” value (SETVI; 320 g/ha) was 90%, the “Post-emergence effect against VERPE in %” value (VERPE; 80 g/ha) was 90% and the “Post-emergence effect against VERPE in %” value (VERPE; 320 g/ha) was 90%. For the same compound, the “Post-emergence effect against VIOTR in %” value (VIOTR; 20 g/ha) was 80%, the “Post-emergence effect against VIOTR in %” value (VIOTR; 80 g/ha) was 90% and the “Post-emergence effect against VIOTR in %” value (VIOTR; 320 g/ha) was 90%. The “Post-emergence effect against KCHSC in %” value (KCHSC; 20 g/ha) was 90%, the “Post-emergence effect against KCHSC in %” value (KCHSC; 80 g/ha) was 90% and the “Post-emergence effect against KCHSC in %” value (KCHSC; 320 g/ha) was 90%.
